# In US20240116994A1, “Peptides And Use Thereof For Diagnosing And Treating Antiphospholipid Syndrome” (UNIVERSITE DE GENEVE, priority 2021, published 2024):
# Where no end group is shown, it is not given here.
# What was measured:
# [1] = tested on: aPL from a pool of 13 Human patients; test: Surface plasmon resonance, aPL flown over biotin-peptide-coated SA chip (BIAcore X100); type: binding
# Method: The kinetics and affinity of protein-protein and protein-lipid interactions were determined using a BIAcore X100 instrument. 1 mg/ml of biotin-tagged peptide (ligand) was immobilized using a sensor chip SA (GE Healthcare) surface, whereas aPL from a pool of 13 Human patients were flown as analyte. The first flow cell of the sensor chip was used as a control surface (no protein), whereas the second flow cell was employed as the active surface. A range of dilution of aPL analytes prepared in the same buffer was injected on both flow cell surfaces at a flow rate of 30 μl/min. Association and dissociation times for each protein injection were set at 90 and 120 s, respectively. In all cases, sensorgrams were obtained from three different dilutions of aPL.
# The de Groot's research group has pointed at the importance of hydrophobic character of the plate during coating of R39-R43 epitope. In order to abrogate of the plate-dependent aPL binding, the Ia-1 and Ib-1 peptides as well as the R39-R43 with a biotin at their N-terminal were synthetized and coated a streptavidin plate. In this configuration, the different peptides are flag oriented in the space preventing any interaction with the plate. It was thus observed that the flag-type orientation of R39-R43-biot leads to 8.52×more interaction with aPL while they show 9.63×more binding for Ib-1-biot presenting the same position. […] The surface plasmon resonance (SPR) technique is used to determine the relative avidity of aPL for R39-R43-biot and Ib-1-biot. The interaction between aPL and immobilized R39-R43-biot or Ib-1-biot is monitored by flowing various concentrations of aPL over a R39-R43-biot- or Ib-1-biot-coated chip surface (FIG. 1C). Through SPR experiments, it appears that aPL avidity for Ib-1-biot presents a resonance unit (RU) of 51.49 at 1/1,000 of dilution and a RU of 27.61 at 1/10,000 of dilution while, at the same dilution, it present a RU of 27.36 and a RU of 17.99 with R39-R43-biot, respectively (FIG. 1C). However, at higher concentrations, the peptides seems to show no differences in the interactions with aPL. […] Considering that IgG valency, it was decided to generate a dimeric Ib-1-biot peptide (Ib-1-biot-2x). This new polypeptide carries thus two optimized epitopes which have the opportunity to interact with two Fab fragment present on aPL. […] At higher concentration, i.e dilution of 1/100, the avidity for dimeric peptide is 28×more than for the monomeric (FIG. 1D).
# It was performed a peptide substitution scan of Ib-1-biot VSRGGMRKKKKPLTG (SEQ ID NO: 6) carrying the optimized epitope Ib-1-biot and based on an exchange of the underlined amino acid positions with the 20 main amino acids. The resulting peptide microarrays contained 140 different peptides. It was observed that the peptide substitution of the position n° 1, 2, 12 and 15 have significant influences on the ability to interact with aPL from patients 1, 2, 3, 4 and, in particular, form the plasma pool. Indeed, the substitution of the position 1, 12 or 15 by an Arginine (R) or a Lysine (K) increases the avidity of the peptide for all aPL from patients. […] In this context, the enhancement relative to Ib-1.0-biot-2x of identified peptides was evaluated (FIG. 2A). […] However, streptavidin being known to produce unspecific binding, it was used the ratio between aPL and a pool of human plasma as control (B/B0) (FIG. 2B, upper panel). This representation therefore allows to distinguish the real levels of interactions. It was then performed a dilution assay from dilution of 1/100 to 1/1,200,000 and it was observed relevant differences between the different identified peptides. By comparison of area under the curve (AUC), it was possible to detect the most prone-interacting peptide with aPL. Thus, the peptide IIa-8.0-biot-2x obtained the higher AUC (FIG. 2B, bottom panel). […]
# [2] = tested on: binding of aPL to IIa-8.0-biot-2x; test: Inhibition experiments: remaining reactivity of pre-treated aPL on IIa-8.0-biot-2x ELISA; set-up: species or system Human; conditions: aPL preincubated 90 min at RT with beads 15, 30 and 60 pmol
# Method: To examine the functional ability of IIa-5.0, IIa-7.1, IIa-8.0 peptides and R39-R43 to inhibit the activity of pool of aPL isolated from APS patients, the remaining reactivity of aPL was evaluated for IIa-8.0-biot-2x which had previously been treated with increasing concentration of peptides. […] The flag-type orientation prevents potential interactions with the plate or with itself, particularly in solution. Streptavidin magnetic beads associated with IIa-5.0-biot-2x, IIa-7.1-biot-2x and Ha-8.0-biot-2x peptides have been generated. aPL was treated with increasing concentrations of beads before to measure the remaining binding activity of aPL on IIa-8.0-biot-2x ELISA (FIG. 7C).
# To assess the ability of IIa-5.0-2x, IIa-7.1-2x and IIa-8.0-2x to inhibit in vitro the binding of aPL to IIa-8.0-biot-2x. aPL pool sera were preincubated for 90 min at RT with increasing concentrations (1, 10 and 10011 g/ml) of monomeric, dimeric IIa-5.0, IIa-7.1 and IIa-8.0 peptides and of IIa-5.0-biot-2x, IIa-7.1-biot-2x and IIa-8.0-biot-2x-associated beads (15, 30 and 60 pmol). 120 pmol correspond to the amount of IIa-8.0-biot-2x coated in well of Streptavidin Coated High Capacity Plates 96 well plates (Thermofisher). After the pre-incubation time, the serum was added anti-b2GP1 IgG (anti-IIa-8.0-2x) ELISA according to the protocol.
substance,measurement,setting,value
"IIa-8.0-biot-2x: dimeric biotinylated IIa-8.0 peptide; also used associated with streptavidin magnetic beads (RSRGGMRKRKKPLTGRSRGGMRKRKKPLTG; also: dimeric peptide (two IIa-8.0 copies), biotinylated, site not given here)",SPR AUC relative to the initial target R39-43,[1],> 10 ×
same,avidity of aPL relative to avidity for Ib-1.0-biot-2x,[1]; all dilutions (FIG. 2C upper panel),1.3 ×
same,SPR AUC relative to Ib-1.0-biot-2x,[1]; dilution 1/100 (FIG. 2C bottom panel),2.3 ×
same,SPR AUC relative to Ib-1.0-biot-2x,"[1]; dilution 1/1,000 (FIG. 2C bottom panel)",3.43 ×
same,SPR AUC relative to Ib-1.0-biot-2x,"[1]; dilution 1/10,000 (FIG. 2C bottom panel)",10.5 ×
same,sustained interaction / stability of binding with aPL (shape of SPR curves),[1]; stabilization curves,sustained stability of binding is also significantly increased
same,inhibition of aPL binding to IIa-8.0-biot-2x ELISA by peptide associated with streptavidin magnetic beads,[2],dose dependently inhibited
